In the NIST ThermoML archive (doi:10.1021/je500867u):
± gives the expanded uncertainty stated by the source.

Settings: Crystal; visual observation

**Q.** For `Nc1ccc(S(=O)(=O)O)cc1` [4-aminobenzenesulfonic acid], which Normal melting temperature is on record?
**A.** 288.0 ± 0.5 °C
